Positions count from the first letter of the chain named. pKi: −log10 of the molar value. Where a SMILES comes first, the peptide text is derived from it. Bridges are numbered along the chain shown (N, C = ends).
What was measured:
Assay in all cases: Heterologous whole cell competition binding
Conditions in all cases: heterologous competition of 125I-sCT(8-32), whole cells, mean ± S.E.M., SEM
[1] = biological target: T1, hCTR H296A (Homo sapiens, UniProt P30988, H296A)
T1 construct: c-Myc (N); expressed in transfected cells
T1 sequence (P30988 25-474 H296A): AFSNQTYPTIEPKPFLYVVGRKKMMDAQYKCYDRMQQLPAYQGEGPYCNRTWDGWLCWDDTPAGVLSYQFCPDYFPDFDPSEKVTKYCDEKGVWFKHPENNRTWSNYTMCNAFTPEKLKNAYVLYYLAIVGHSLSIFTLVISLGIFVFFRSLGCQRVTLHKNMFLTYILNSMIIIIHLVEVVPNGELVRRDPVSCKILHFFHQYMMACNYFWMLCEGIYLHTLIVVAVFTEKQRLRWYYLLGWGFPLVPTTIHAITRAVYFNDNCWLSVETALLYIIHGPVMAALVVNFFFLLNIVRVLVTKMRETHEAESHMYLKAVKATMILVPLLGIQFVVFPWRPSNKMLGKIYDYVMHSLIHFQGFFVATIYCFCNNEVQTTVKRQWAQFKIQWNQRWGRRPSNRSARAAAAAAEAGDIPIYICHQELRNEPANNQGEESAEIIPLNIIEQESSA
Outline: (§1)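 Reported pKi values come from whole-cell displacement of a radiolabelled tracer, incubated overnight and quantified by gamma counting after washing out free ligand, with correction for tracer occupancy (Cheng-Prusoff).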

[2] = biological target: T2, hCTR Y372A (Homo sapiens, UniProt P30988, Y372A)
T2 construct: c-Myc (N); expressed in transfected cells
T2 sequence (P30988 25-474 Y372A): T1 sequence (P30988 25-474 H296A) with A272H, Y348A
Outline: as §1

[3] = biological target: T3, hCTR P363A (Homo sapiens, UniProt P30988, P363A)
T3 construct: expressed in transfected cells
T3 sequence (P30988 25-474 P363A): T1 sequence (P30988 25-474 H296A) with A272H, P339A
Outline: as §1

[4] = biological target: T4, hCTR P360A (Homo sapiens, UniProt P30988, P360A)
T4 construct: expressed in transfected cells
T4 sequence (P30988 25-474 P360A): T1 sequence (P30988 25-474 H296A) with A272H, P336A
Outline: as §1

[5] = biological target: T5, hCTR R362A (Homo sapiens, UniProt P30988, R362A)
T5 construct: expressed in transfected cells
T5 sequence (P30988 25-474 R362A): T1 sequence (P30988 25-474 H296A) with A272H, R338A
Outline: as §1

- pKi [1]: 8.07
- pKi [2]: 7.55
- pKi [3]: 7.26
- pKi [4]: 7.30
- pKi [5]: 7.33
SMILES: CSCC[C@H](NC(=O)CNC(=O)[C@H](CO)NC(=O)[C@H](Cc1ccccc1)NC(=O)[C@H](CCCNC(=N)N)NC(=O)[C@H](Cc1c[nH]cn1)NC(=O)[C@H](Cc1ccccc1)NC(=O)[C@H](CC(N)=O)NC(=O)[C@H](CC(N)=O)NC(=O)[C@H](CC(C)C)NC(=O)[C@H](CC(N)=O)NC(=O)[C@H](CCCNC(=N)N)NC(=O)[C@H](Cc1c[nH]c2ccccc12)NC(=O)[C@H](Cc1ccc(O)cc1)NC(=O)[C@H](C)NC(=O)[C@H](CO)NC(=O)[C@H](CC(C)C)NC(=O)[C@@H](NC(=O)[C@@H]1CSSC[C@H](N)C(=O)N[C@@H](CO)C(=O)N[C@@H](CC(N)=O)C(=O)N[C@@H](CC(C)C)C(=O)N[C@@H](CO)C(=O)N[C@@H]([C@@H](C)O)C(=O)N1)C(C)C)C(=O)NCC(=O)N[C@@H](Cc1ccccc1)C(=O)NCC(=O)N1CCC[C@H]1C(=O)N[C@@H](CCC(=O)O)C(=O)N[C@H](C(=O)N1CCC[C@H]1C(N)=O)[C@@H](C)O [pCT] (H-CSNLSTCVLSAYWRNLNNFHRFSGMGFGPETP-NH2; disulfide 1-7)

— PMC5908784, “Extracellular loops 2 and 3 of the calcitonin receptor selectively modify agonist binding and efficacy” (Biochemical Pharmacology, 2018)
